Six compounds from ChEMBL document CHEMBL1125506, “Fluoronaphthyridines as antibacterial agents. 6. Synthesis and structure-activity relationships of new chiral 7-(1-, 3-, 4-, and 6-methyl-2,5-diazabicyclo[2.2.1]heptan-2-yl)naphthyridine analogues of 7-[(1R,4R)-2,5- diazabicyclo[2.2.1]heptan-2-yl]-1-(1,1-dimethylethyl)-6-fluoro-1,4-dihy …” (J Med Chem, 1992) can be followed below.

The test system of data set [1] is Proteus mirabilis. Nature of the data set: In vitro antibacterial activity against Proteus mirabilis A9900. The format is functional.
For data set [2], the system named is Escherichia coli. Nature of the data set: In vitro antibacterial activity against Escherichia coli A15119. It counts as functional.
A short description of data set [3]: Partition coefficient (logD). The format is physicochemical. Conditions: octanol/water.
The test system of data set [4] is Pseudomonas aeruginosa. Nature of the data set: In vitro antibacterial activity against Pseudomonas aeruginosa A9843. It counts as functional.
For data set [5], the system named is Enterococcus faecalis. Description: In vitro antibacterial activity against Enterococcus faecalis A9809. It counts as functional.
In data set [6] the test system is Serratia marcescens. Nature of the data set: In vitro antibacterial activity against Serratia marcescens A20019. The format is functional.
Data set [7] concerns Morganella morganii. Description: In vitro antibacterial activity against Morganella morganii A15153. The format is functional.
Data set [8] has as its system Bacteroides fragilis. Nature of the data set: In vitro antibacterial activity against Bacteroides fragilis A-22,862. The format is functional.
In data set [9] the test system is Klebsiella pneumoniae. Nature of the data set: In vitro antibacterial activity against Klebsiella pneumoniae A9664. It counts as functional.
The subject of data set [10] is Staphylococcus aureus. Description: In vitro antibacterial activity against Staphylococcus aureus A9537. It counts as functional.
Data set [11] deals with Enterobacter cloacae. Nature of the data set: In vitro antibacterial activity against Enterobacter cloacae A9656. The format is functional.
A short description of data set [12]: Solubility (water, 22C, pH 7.2). It counts as physicochemical. Conditions: read-out: S.
Data set [13] concerns Streptococcus pneumoniae. Nature of the data set: In vitro antibacterial activity against Streptococcus pneumoniae A9585. The format is functional.

The structures appear in SMILES notation.

One may read the MIC as the lowest concentration that inhibits growth of the organism. Higher therefore signals weaker potency. A word on the logD: it is the decadic logarithm of the distribution of all forms, ionised or not, between an organic phase and buffer at a given pH.

`Cc1c(F)c(N2[C@H]3CN[C@H](C3)[C@@H]2C)nc2c1c(=O)c(C(=O)O)cn2C1CC1.Cl`: the MIC worked out at 0.13 µg/mL in data set [1]; 0.016 µg/mL in data set [2]; 0.25 µg/mL in data set [4]; 0.25 µg/mL in data set [5]; 0.13 µg/mL in data set [6]; 0.13 µg/mL in data set [7]. For the same compound, the MIC turned out to be 4 µg/mL in [8]; 0.016 µg/mL in data set [9]; 0.016 µg/mL in [10]; 0.016 µg/mL in data set [11]; 0.13 µg/mL in [13]. The logD in data set [3] amounted to 0.73. Further, the solubility in [12] stood at 70 µg/mL.

As to `CC(C)(C)n1cc(C(=O)O)c(=O)c2cc(F)c(N3C[C@@]4(C)C[C@@H]3CN4)nc21.Cl`, the MIC in data set [1] was 0.25 µg/mL; in data set [2], 0.03 µg/mL; in data set [4] it was 1 µg/mL; in data set [5], 1 µg/mL; in [6], 0.13 µg/mL; in [7], 0.25 µg/mL. Moreover, the MIC in [8] amounted to 16 µg/mL; in data set [9] it was 0.03 µg/mL; in [10], 0.03 µg/mL; in data set [11], 0.016 µg/mL; in data set [13], 0.5 µg/mL. Moreover, the logD in data set [3] came to 0.02. Also, the solubility in [12] is 67 µg/mL.

On to `Cc1c(F)c(N2C[C@H]3C[C@@H]2[C@H](C)N3)nc2c1c(=O)c(C(=O)O)cn2C(C)(C)C.Cl`, for which the MIC was found to be 0.5 µg/mL in data set [1]; 0.03 µg/mL in data set [2]; 2 µg/mL in [4]; 0.5 µg/mL in [5]; 0.5 µg/mL in data set [6]; 0.5 µg/mL in data set [7]. In addition, the MIC in data set [8] stood at 16 µg/mL; in [9], 0.13 µg/mL; in [10], 0.016 µg/mL; in [11], 0.03 µg/mL; in [13], 0.5 µg/mL. Besides, the logD in data set [3] came out at 1.3. In addition, the solubility in data set [12] stood at 250 µg/mL.

For `Cc1c(F)c(N2[C@H]3CN[C@H](C3)[C@H]2C)nc2c1c(=O)c(C(=O)O)cn2C1CC1.Cl`, the MIC in data set [1] stood at 0.5 µg/mL; in data set [2], 0.016 µg/mL; in data set [4], 2 µg/mL; in data set [5], 0.025 µg/mL; in [6], 0.5 µg/mL; in [7], 0.25 µg/mL. In addition, the MIC in [8] worked out at 8 µg/mL; in data set [9], 0.06 µg/mL; in [10] it was 0.03 µg/mL; in [11], 0.06 µg/mL; in data set [13], 0.25 µg/mL. The logD in data set [3] amounted to 1. Also, in [12], the solubility turned out to be 220 µg/mL.

Turning to `Cc1c(F)c(N2C[C@H]3C[C@@H]2[C@@H](C)N3)nc2c1c(=O)c(C(=O)O)cn2C1CC1.Cl`, the MIC in [1] was determined as 0.25 µg/mL; in data set [2], 0.016 µg/mL; in [4] it was 1 µg/mL; in data set [5] it was 0.25 µg/mL; in [6], 0.5 µg/mL; in data set [7] it was 0.25 µg/mL. Also, the MIC in [8] came out at 8 µg/mL; in data set [9], 0.06 µg/mL; in data set [10], 0.016 µg/mL; in data set [11] it was 0.06 µg/mL; in data set [13], 0.13 µg/mL. Further, the logD in data set [3] came out at 0.71. Further, in data set [12], the solubility was 150 µg/mL.

Turning to `CC(C)(C)n1cc(C(=O)O)c(=O)c2cc(F)c(N3C[C@H]4C[C@]3(C)CN4)nc21.Cl`, the MIC was 2 µg/mL in data set [1]; 0.25 µg/mL in data set [2]; 4 µg/mL in [4]; 16 µg/mL in data set [5]; 1 µg/mL in data set [6]; 2 µg/mL in [7]. Besides, the MIC in data set [8] worked out at 64 µg/mL; in data set [9] it was 0.5 µg/mL; in data set [10], 1 µg/mL; in data set [11], 0.25 µg/mL; in data set [13] it was 2 µg/mL. The logD in data set [3] was -0.37. For the same compound, in data set [12], the solubility is 6 µg/mL.
